We go through one molecule from patent US20130237570A1 (priority 2002, published 2013).

Series [1] in a line: Buffer capacity determination by titration with 0.1 M HCl. The class given is physicochemical. Particulars: without added buffering agent. The protocol:
Method: 10.0 ml of the respective below solutions was titrated with 0.1 M HCl to pH 7.0. The amount of 0.1 M HCl needed to decrease pH from 9.0 to 8.0 was determined

The text on series [2]:
Absorption of nicotine from the oral cavity to the systemic circulation is dependent on the pH of the saliva and the pKa of nicotine, which is about 7.8. Assuming a pH of the saliva of 6.8 only about 10% of the nicotine in saliva will be in the free base form. Thus, in order to promote absorption of nicotine in a free base form, which is the form predominantly absorbed through the mucosa, the pH of the saliva must be increased. At a pH of 8.8 about 90% of the nicotine in saliva will then be in the free base form.

For series [3] the following is noted: Merck Index; cited from earlier work.
For series [4] the following is noted: smoking of a cigarette; cited from earlier work.

Molecules are shown by their SMILES. Like-named read-outs stand apart in the source and are kept apart here.

`CN1CCCC1c1cccnc1` (centres unmarked) [nicotine, 3-(1-methyl-2-pyrrolidinyl)-pyridine]: the “buffering capacity on its own, in words” value in series [1] was “too weak a buffering capacity on its own”. Also, the “nicotine in saliva in the free base form” value in series [2] (saliva pH 6.8) is listed as “about 10%”; in series [2] (saliva pH 8.8) it was “about 90%”. In series [3], the “amount of nicotine that may kill an adult” value was “Approximately forty”. In series [4], the “time for nicotine to reach the brain after inhalation” value was “around ten”.
